Some test systems named below: COLO 205; SK-MEL-5; IGROV-1; HCT-116; Malme-3M; BT-549; SK-MEL-28; CCRF-CEM; OVCAR-3; HCT-15; LOX IMVI; TK-10; A549; NCI-H460; OVCAR-4; UO-31; HOP-92; HOP-62; SNB-75.
Holding throughout (assay): NCI tumour cell line growth inhibition, 48 h

Here are results for twelve compounds from ChEMBL document CHEMBL1201862, “PubChem BioAssay data set” (2004).

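Step 1: Grow cells in 96-well plates. Step 2: Expose to compound for 48 hours at 5 concentrations. Step 3: Interpolate endpoints linearly; if unreached, use highest concentration. Abbreviation: GI50, concentration required for 50% inhibition of growth.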 The source made the active and inactive calls. No stated cut-off is given here; in the data, active = GI50 up to about 1.1 µM and inactive = higher.

As for `CCN(CC)c1ccc(C2NC(=O)c3ccccc3N2)cc1` (stereo not given), the GI50 in the test on COLO 205 is 1.63 µM (inactive); in the test on SK-MEL-5, 1.15 µM (inactive); with IGROV-1 it was 5.24 µM (inactive); with HCT-116, 1.48 µM (inactive); in the test on Malme-3M it was > 28.4 µM (inactive); in the test on BT-549, > 100 µM (inactive). The GI50 with SK-MEL-28 was > 100 µM (inactive); in the test on CCRF-CEM it was 0.641 µM (active); with OVCAR-3 it was 2.82 µM (inactive); in the test with HCT-15, 1.13 µM; in the test on LOX IMVI it was 2.95 µM (inactive); in the test on TK-10 it was > 100 µM (inactive). Moreover, the GI50 with A549 was 3.27 µM (inactive); in the test with NCI-H460, 1.21 µM (inactive); in the test with OVCAR-4 it was > 100 µM (inactive); in the test with UO-31, > 24.5 µM (inactive); in the test with HOP-92, 3.05 µM (inactive); with HOP-62 it was 5.7 µM (inactive).
For `Cc1c(O)c(=O)ccn1CCc1c[nH]c2ccccc12`, the GI50 was 12.6 µM (inactive) in the test with COLO 205; 6.52 µM (inactive) in the test on SK-MEL-5; 6.61 µM (inactive) in the test with HCT-116; 18.2 µM (inactive) in the test with Malme-3M; 20.7 µM (inactive) with BT-549; 0.397 µM with HCT-15. The GI50 in the test with LOX IMVI was 0.0335 µM (active); in the test with TK-10 it was 4.81 µM (inactive); with A549 it was 9.35 µM (inactive); in the test with NCI-H460, 4.11 µM (inactive); with HOP-92, 0.483 µM (active); in the test with HOP-62 it was 8.75 µM (inactive).
Regarding `Nc1ccc2ccc(-c3ccc[nH]3)nc2n1`, the GI50 in the test with SNB-75, with COLO 205, with SK-MEL-5, with IGROV-1, in the test with HCT-116 and in the test on Malme-3M was > 100 µM (inactive) each time. For the same compound, the GI50 was > 100 µM (inactive) with BT-549; > 100 µM (inactive) in the test with SK-MEL-28; > 100 µM (inactive) in the test with OVCAR-3; over 100 µM with HCT-15; > 100 µM (inactive) in the test with LOX IMVI; > 100 µM (inactive) in the test with TK-10. Also, the GI50 in the test on A549, in the test on NCI-H460, with OVCAR-4, with UO-31, in the test on HOP-92 and in the test on HOP-62 was > 100 µM (inactive) throughout.
Consider `COc1cc(CC2C(=O)OCC2Cc2ccc(OC)c(OC)c2)ccc1O` (stereo not given), for which the GI50 is > 60.5 µM (inactive) in the test on SNB-75; > 100 µM (inactive) in the test with COLO 205; 4.42 µM (inactive) in the test with SK-MEL-5; > 75.3 µM (inactive) with IGROV-1; > 100 µM (inactive) in the test with HCT-116; > 100 µM (inactive) in the test with Malme-3M. For the same compound, the GI50 is > 55.2 µM (inactive) in the test with BT-549; > 100 µM (inactive) with SK-MEL-28; > 91.8 µM (inactive) in the test with OVCAR-3; over 100 µM with HCT-15; 30.8 µM (inactive) with LOX IMVI; > 100 µM (inactive) in the test on TK-10. Further, the GI50 in the test on A549 was > 71.8 µM (inactive); in the test with NCI-H460, > 100 µM (inactive); with OVCAR-4, > 100 µM (inactive); in the test with UO-31 it was > 100 µM (inactive); with HOP-92, 29.5 µM (inactive); with HOP-62, > 100 µM (inactive).
Consider `O=C(/C=C1/Nc2ccc([N+](=O)[O-])cc2N/C1=C/C(=O)c1ccc(Cl)cc1)c1ccc(Cl)cc1`, for which the GI50 is > 100 µM (inactive) with SNB-75; > 100 µM (inactive) in the test on COLO 205; 33.3 µM (inactive) with SK-MEL-5; > 100 µM (inactive) in the test on IGROV-1; 15 µM (inactive) with HCT-116; > 100 µM (inactive) with Malme-3M. The GI50 in the test with BT-549 is > 100 µM (inactive); with CCRF-CEM, 34.4 µM (inactive); with OVCAR-3 it was 80.2 µM (inactive); in the test with HCT-15 it was 24.2 µM; in the test on TK-10, > 100 µM (inactive); in the test with A549, > 100 µM (inactive). Also, the GI50 in the test on NCI-H460 was 42.9 µM (inactive); in the test with OVCAR-4, > 100 µM (inactive); in the test with UO-31, > 100 µM (inactive); in the test on HOP-62 it was > 100 µM (inactive).
With `CC(C)(C)OC(=O)NC(CCCCNC(=O)OCc1ccccc1)C(=O)NC(CCCCNC(=O)OCc1ccccc1)C(=O)ON1C(=O)CCC1=O` (stereo not given), the GI50 with SNB-75, with COLO 205, in the test with SK-MEL-5, with IGROV-1, in the test on HCT-116 and with Malme-3M was > 100 µM (inactive) throughout. Besides, the GI50 with BT-549 is > 100 µM (inactive); with SK-MEL-28, > 100 µM (inactive); with CCRF-CEM, > 100 µM (inactive); in the test with HCT-15 it was over 100 µM; with TK-10, > 100 µM (inactive); in the test on A549, > 100 µM (inactive). For the same compound, the GI50 in the test with UO-31, in the test with HOP-92 and in the test on HOP-62 was > 100 µM (inactive) throughout.
On to `N#Cc1c(C#N)c(-c2ccccc2)n(-c2ccccc2)c1N`, for which the GI50 in the test on SNB-75 is 1.27 µM (inactive); with COLO 205, > 100 µM (inactive); in the test with SK-MEL-5, 18.9 µM (inactive); in the test on IGROV-1, 88.5 µM (inactive); in the test with HCT-116 it was 5.51 µM (inactive); in the test with Malme-3M it was > 100 µM (inactive). In addition, the GI50 is 48.4 µM (inactive) with BT-549; 87.5 µM (inactive) with CCRF-CEM; > 100 µM (inactive) in the test with OVCAR-3; over 100 µM in the test with HCT-15; > 100 µM (inactive) in the test with LOX IMVI; > 100 µM (inactive) with TK-10. Further, the GI50 with A549 was > 100 µM (inactive); in the test with OVCAR-4, 56.2 µM (inactive); with UO-31 it was 12.8 µM (inactive); with HOP-62 it was 84.9 µM (inactive).
On to `O=C(O)C/N=C(\C(=N\CC(=O)O)c1ccccc1)c1ccccc1`, for which the GI50 with SNB-75, in the test with COLO 205, with HCT-116, in the test on Malme-3M, with BT-549 and in the test with SK-MEL-28 was > 100 µM (inactive) throughout. For the same compound, the GI50 in the test on OVCAR-3 is > 100 µM (inactive); in the test with HCT-15 it was over 100 µM; in the test on LOX IMVI, > 100 µM (inactive); in the test with TK-10, > 100 µM (inactive); in the test on A549, > 100 µM (inactive); in the test with NCI-H460, > 100 µM (inactive). In addition, the GI50 with OVCAR-4 is > 100 µM (inactive); in the test with UO-31, 90.2 µM (inactive); with HOP-62, > 100 µM (inactive).
Consider `Cc1nnc2n1-c1ccccc1C(=S)N1CSCC21` (stereo not given), for which the GI50 in the test with SNB-75, in the test with COLO 205, with SK-MEL-5, in the test on IGROV-1, with HCT-116 and with Malme-3M was > 100 µM (inactive) each time. Further, the GI50 was > 100 µM (inactive) in the test with BT-549; > 100 µM (inactive) in the test with SK-MEL-28; > 100 µM (inactive) in the test on CCRF-CEM; > 100 µM (inactive) in the test on OVCAR-3; 79.3 µM in the test on HCT-15; > 100 µM (inactive) with LOX IMVI. For the same compound, the GI50 in the test on TK-10, in the test with A549, in the test on NCI-H460, in the test with OVCAR-4, with UO-31 and with HOP-62 was > 100 µM (inactive) in each case.
`CN1CC2=C(OC(N)=C(C#N)C2c2cccs2)/C(=C/c2cccs2)C1` (stereo not given): the GI50 is 9.08 µM (inactive) in the test on COLO 205; 3.41 µM (inactive) with SK-MEL-5; 15.5 µM (inactive) with IGROV-1; 8.43 µM (inactive) with HCT-116; 8.65 µM (inactive) with Malme-3M; 5.62 µM (inactive) with BT-549. For the same compound, the GI50 is > 57.9 µM (inactive) in the test on SK-MEL-28; 5.52 µM (inactive) in the test with CCRF-CEM; 15.8 µM (inactive) in the test with OVCAR-3; 15.5 µM in the test with HCT-15; 13.9 µM (inactive) in the test with LOX IMVI; > 51.2 µM (inactive) in the test on TK-10. Moreover, the GI50 in the test with A549 was 8.3 µM (inactive); in the test with NCI-H460, 17.7 µM (inactive); with OVCAR-4, 5.52 µM (inactive); in the test with UO-31 it was 34 µM (inactive); in the test with HOP-92 it was 2.09 µM (inactive); in the test on HOP-62 it was 19.3 µM (inactive).
As for `COc1ccc(/C=C2\N=C(c3ccccc3)N(NC3=NC(=O)CC(=O)N3)C2=O)cc1`, the GI50 with SNB-75, in the test on COLO 205, in the test with SK-MEL-5, in the test with IGROV-1, with HCT-116 and in the test with Malme-3M was > 100 µM (inactive) throughout. Further, the GI50 was > 100 µM (inactive) in the test on BT-549; > 100 µM (inactive) in the test on SK-MEL-28; 39.2 µM (inactive) in the test on CCRF-CEM; > 100 µM (inactive) in the test on OVCAR-3; over 100 µM in the test on HCT-15; > 100 µM (inactive) in the test with TK-10. The GI50 in the test with A549, with NCI-H460, with OVCAR-4, in the test on UO-31, in the test with HOP-92 and in the test with HOP-62 was > 100 µM (inactive) in each case.
For the compound `O=C1C=Cc2c(Br)sc(Br)c21`, the GI50 in the test on SNB-75 is 90.4 µM (inactive); in the test with COLO 205, 34.2 µM (inactive); with SK-MEL-5 it was 91.2 µM (inactive); with IGROV-1, 18.6 µM (inactive); in the test with HCT-116, 29.1 µM (inactive); with Malme-3M, 23.1 µM (inactive). Also, the GI50 with BT-549 was 27.3 µM (inactive); in the test on SK-MEL-28, 28.8 µM (inactive); in the test with CCRF-CEM, 2.64 µM (inactive); with OVCAR-3 it was 15.8 µM (inactive); in the test on HCT-15, 26.2 µM; in the test on LOX IMVI, 20.5 µM (inactive). Also, the GI50 with TK-10 is 4.78 µM (inactive); in the test on A549 it was 55.1 µM (inactive); in the test with NCI-H460, 32.3 µM (inactive); in the test on UO-31, 17.7 µM (inactive); with HOP-92, 24.7 µM (inactive); in the test with HOP-62, 29.8 µM (inactive).
